Reference: patent US5591714A, “Derivatives of A82846” (priority 1994, dated 1997)
Values after ≈ are worked out from the molar mass of the structure shown.

Columns and labels:
Streptococcus pneumoniae = assay: In vivo activity, experimentally infected mice (ED50); settings: Streptococcus pneumoniae infection; doses administered subcutaneously to mice 1 and 4 hours postinfection
[1] = system: Staphylococcus epidermidis 222; assay: MIC, standard agar-dilution assay; type: cell-based
Method: (§1) The formula I compounds have in vitro and in vivo activity against Gram-positive pathogenic bacteria. The MIC's were determined using a standard agar-dilution assays.

[2] = system: Staphylococcus aureus X400; assay: MIC, standard agar-dilution assay; type: cell-based
Method: as §1

Escherichia coli TEM = assay: MIC, standard agar-dilution assay; type: cell-based
Method: as §1

[3] = system: Staphylococcus aureus NRRL X1.1; assay: MIC, standard agar-dilution assay; type: cell-based
Method: as §1

[4] = system: Klebsiella pneumoniae X26; assay: MIC, standard agar-dilution assay; type: cell-based
Method: as §1

[5] = system: Streptococcus pyogenes C203; assay: MIC, standard agar-dilution assay; type: cell-based
Method: as §1

[6] = system: Staphylococcus epidermidis EPI270; assay: MIC, standard agar-dilution assay; type: cell-based
Method: as §1

[7] = system: Staphylococcus aureus V41; assay: MIC, standard agar-dilution assay; type: cell-based
Method: as §1

[8] = system: Haemophilus influenzae 76; assay: MIC, standard agar-dilution assay; type: cell-based
Method: as §1

[9] = system: Haemophilus influenzae C.L.; assay: MIC, standard agar-dilution assay; type: cell-based
Method: as §1

Escherichia coli N10 = assay: MIC, standard agar-dilution assay; type: cell-based
Method: as §1

[10] = system: Klebsiella pneumoniae X68; assay: MIC, standard agar-dilution assay; type: cell-based
Method: as §1

Escherichia coli EC14 = assay: MIC, standard agar-dilution assay; type: cell-based
Method: as §1

[11] = system: Klebsiella pneumoniae KAE; assay: MIC, standard agar-dilution assay; type: cell-based
Method: as §1

Enterococcus faecium X66 = assay: MIC, standard agar-dilution assay; type: cell-based
Method: as §1
^b Formerly Streptococcus faecium X66

Staphylococcus aureus = assay: In vivo activity, experimentally infected mice (ED50); settings: Staphylococcus aureus infection; doses administered subcutaneously to mice 1 and 4 hours postinfection
Streptococcus pyogenes = assay: as above; settings: Streptococcus pyogenes infection; doses administered subcutaneously to mice 1 and 4 hours postinfection
[12] = system: vancomycin-susceptible (Vanco^s) E. faecium and E. faecalis; assay: Susceptibility of vancomycin-susceptible enterococci, agar-dilution MIC; type: cell-based; settings: n = 34 strains; end points read after 24-hour incubation
Method: (§2) End points were read after 24-hour incubation. The ratio was calculated by dividing the mean MIC of the compound against the vancomycin-resistant strains by the mean MIC of the compound against the vancomycin-susceptible strains.

[13] = system: vancomycin-resistant (Vanco^r) E. faecium and E. faecalis; assay: Susceptibility of vancomycin-resistant enterococci, agar-dilution MIC; type: cell-based; settings: for Geometric Mean MIC, Vanco^r Strains: n = 25 strains, end points read after 24-hour incubation
Method: as §2

[14] = system: Enterococcus faecalis 2041; assay: MIC, standard agar-dilution assay; type: cell-based
Method: as §1
^c Formerly Streptococcus faecalis 2041

[15] = system: six vancomycin-susceptible strains of staphylococci and enterococci; assay: Effect of human serum on the MIC, serial dilution assay; type: cell-based; settings: for MIC determined in absence of added serum: absence (-) of human serum; for ratio of the MIC in the presence of added serum to the MIC in the absence of added serum: indication of the degree of serum binding; for MIC determined in presence of human serum: broth supplemented with human serum to 40%
Description: Another important property of the formula I compounds is the low binding of the compounds to serum proteins when compared with other glycopeptide antibiotics. […] The ratio of the MIC measured in the presence of added serum to the MIC measured in the absence of added serum ("ratio") is an indication of the degree of serum binding. […] A ratio that is greater than one, for example about ten, indicates the compound has a high degree of serum binding.

[16] = system: Streptococcus pneumoniae Park 1; type: cell-based
Method: as §1

[17] = system: Staphylococcus aureus S13E; type: cell-based
Method: as §1

Structure (SMILES)	ED50 (Streptococcus pneumoniae) [mg/kg/2]	MIC [1]	MIC [2]	MIC (Escherichia coli TEM) [µg/mL]	MIC [3]	MIC [4] [µg/mL]	MIC [5]	MIC [6] [µg/mL]	MIC [7]	MIC [8] [µg/mL]	MIC [9] [µg/mL]	MIC (Escherichia coli N10) [µg/mL]	MIC [10] [µg/mL]	MIC (Escherichia coli EC14) [µg/mL]	MIC [11] [µg/mL]	MIC (Enterococcus faecium X66)	ED50 (Staphylococcus aureus) [mg/kg/2]	ED50 (Streptococcus pyogenes) [mg/kg/2]	Geometric Mean MIC, Vanco^s Strains [12] [µg/mL]	Ratio (mean MIC vancomycin-resistant strains / mean MIC vancomycin-susceptible strains) [13]	also measured
CCCCCCCCN[C@@]1(C)C[C@H](O[C@H]2[C@H](Oc3c4cc5cc3Oc3ccc(cc3Cl)[C@@H](O[C@H]3C[C@](C)(N)[C@@H](O)[C@H](C)O3)[C@@H]3NC(=O)[C@H](NC(=O)[C@@H]5NC(=O)[C@H](CC(N)=O)NC(=O)[C@H](NC(=O)[C@@H](CC(C)C)NC)[C@H](O)c5ccc(c(Cl)c5)O4)c4ccc(O)c(c4)-c4c(O)cc(O)cc4[C@@H](C(=O)O)NC3=O)O[C@H](CO)[C@@H](O)[C@@H]2O)O[C@@H](C)[C@@H]1O [Compound 38]	0.062	.5 µg/mL (≈ 0.293 µM)	1 µg/mL (≈ 0.587 µM)	> 128	.5 µg/mL (≈ 0.293 µM)	> 128	.06 µg/mL (≈ 0.0352 µM)	1 (≈ 0.587 µM)	1 µg/mL (≈ 0.587 µM)	> 128	> 128	> 128	> 128	> 128	> 128	.25 µg/mL (≈ 0.147 µM)	0.43	0.11	0.73	2.9	Geometric Mean MIC, Vanco^r Strains [13]: 2.1 µg/mL; MIC [14]: .25 µg/mL (≈ 0.147 µM); MIC determined in absence of added serum [15]: 0.75; ratio of the MIC in the presence of added serum to the MIC in the absence of added serum [15]: 0.58; MIC determined in presence of human serum [15]: 0.43; MIC [16]: .25 µg/mL (≈ 0.147 µM); MIC [17]: .5 µg/mL (≈ 0.293 µM)
CCCCCCCCCCN[C@@]1(C)C[C@H](O[C@H]2[C@H](Oc3c4cc5cc3Oc3ccc(cc3Cl)[C@@H](O[C@H]3C[C@](C)(N)[C@@H](O)[C@H](C)O3)[C@@H]3NC(=O)[C@H](NC(=O)[C@@H]5NC(=O)[C@H](CC(N)=O)NC(=O)[C@H](NC(=O)[C@@H](CC(C)C)NC)[C@H](O)c5ccc(c(Cl)c5)O4)c4ccc(O)c(c4)-c4c(O)cc(O)cc4[C@@H](C(=O)O)NC3=O)O[C@H](CO)[C@@H](O)[C@@H]2O)O[C@@H](C)[C@@H]1O [Compound 42]	0.09	.5 µg/mL (≈ 0.289 µM)	.5 µg/mL (≈ 0.289 µM)	> 128	.5 µg/mL (≈ 0.289 µM)	> 128	.25 µg/mL (≈ 0.144 µM)	1 (≈ 0.577 µM)	.5 µg/mL (≈ 0.289 µM)	> 128	> 128	> 128	> 128	> 128	> 128	.06 µg/mL (≈ 0.0346 µM)	0.67	0.09	0.92	2.7	Geometric Mean MIC, Vanco^r Strains [13]: 2.5 µg/mL; MIC [14]: .5 µg/mL (≈ 0.289 µM); MIC determined in absence of added serum [15]: 0.87; ratio of the MIC in the presence of added serum to the MIC in the absence of added serum [15]: 0.76; MIC determined in presence of human serum [15]: 0.66; MIC [16]: .25 µg/mL (≈ 0.144 µM); MIC [17]: 1 µg/mL (≈ 0.577 µM)
